Measurements published in PubChem BioAssay AID2060492 (Molecular Pharmacology Branch, DTP, NCI, 2025).
pIC50: −log10 of the molar value.

System: 695427-040-R-J1-PDC complex spheroids, viability percent T/C
Test: Anticancer human tumor 695427-040-R-J1-PDC patient-derived colon adenocarcinoma cell line growth inhibition [GQUAD]
Details: for pIC50: curve of first compound; for viability, T/C: stronger effect = lower value
How it was run: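 Tumor cells were grown as complex spheroids with HUVEC endothelial cells and mesenchymal stem cells as stroma. G-quadruplex stabilizers were combined with targeted agents over half-log dilutions from near the clinical Cmax, or from 10 microM.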

[1] = second compound 0.0316 µM, first compound 0.0316 µM
[2] = second compound 0.0316 µM, first compound 0.1 µM
[3] = second compound 0.0316 µM, first compound 0.316 µM
[4] = second compound 0.0316 µM, first compound 1 µM
[5] = second compound 0.0316 µM, first compound 3.16 µM
[6] = second compound 0.0316 µM, first compound 10 µM
[7] = second compound 0.1 µM, first compound 0.0316 µM
[8] = second compound 0.1 µM, first compound 0.1 µM
[9] = second compound 0.1 µM, first compound 0.316 µM
[10] = second compound 0.1 µM, first compound 1 µM
[11] = second compound 0.1 µM, first compound 3.16 µM
[12] = second compound 0.1 µM, first compound 10 µM
[13] = second compound 0.316 µM, first compound 0.0316 µM
[14] = second compound 0.316 µM, first compound 0.1 µM
[15] = second compound 0.316 µM, first compound 0.316 µM
[16] = second compound 0.316 µM, first compound 1 µM
[17] = second compound 0.316 µM, first compound 3.16 µM
[18] = second compound 0.316 µM, first compound 10 µM
[19] = second compound 1 µM, first compound 0.0316 µM
[20] = second compound 1 µM, first compound 0.1 µM
[21] = second compound 1 µM, first compound 0.316 µM
[22] = second compound 1 µM, first compound 1 µM
[23] = second compound 1 µM, first compound 3.16 µM
[24] = second compound 1 µM, first compound 10 µM
[25] = second compound 3.16 µM, first compound 0.0316 µM
[26] = second compound 3.16 µM, first compound 0.1 µM
[27] = second compound 3.16 µM, first compound 0.316 µM
[28] = second compound 3.16 µM, first compound 1 µM
[29] = second compound 3.16 µM, first compound 3.16 µM
[30] = second compound 3.16 µM, first compound 10 µM
[31] = second compound 10 µM, first compound 0.0316 µM
[32] = second compound 10 µM, first compound 0.1 µM
[33] = second compound 10 µM, first compound 0.316 µM
[34] = second compound 10 µM, first compound 1 µM
[35] = second compound 10 µM, first compound 3.16 µM
[36] = second compound 10 µM, first compound 10 µM
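Further: spheroids exposed to compounds for seven days before readout.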

SMILES: COc1cccc2c1C(=O)c1c(O)c3c(c(O)c1C2=O)CC(O)(C(=O)CO)CC3OC1CC(N)C(O)C(C)O1 (stereo unspecified) + CN(C)c1ccc(Nc2c3ccc(NC(=O)CCN4CCCC4)cc3nc3cc(NC(=O)CCN4CCCC4)ccc23)cc1
- pIC50 (second compound 0.0316 µM): 5.02
- pIC50 (second compound 0.1 µM): < 5.00
- pIC50 (second compound 0.316 µM): < 5.00
- pIC50 (second compound 1 µM): 5.00
- pIC50 (second compound 3.16 µM): 5.09
- pIC50 (second compound 10 µM): < 5.00
- viability, T/C [1]: 97%
- viability, T/C [2]: 86.8%
- viability, T/C [3]: 90.3%
- viability, T/C [4]: 82.3%
- viability, T/C [5]: 63.1%
- viability, T/C [6]: 49.7%
- viability, T/C [7]: 102%
- viability, T/C [8]: 92%
- viability, T/C [9]: 85.9%
- viability, T/C [10]: 81.3%
- viability, T/C [11]: 66.6%
- viability, T/C [12]: 53.2%
- viability, T/C [13]: 93.2%
- viability, T/C [14]: 89.4%
- viability, T/C [15]: 90.2%
- viability, T/C [16]: 80.5%
- viability, T/C [17]: 63.8%
- viability, T/C [18]: 50.1%
- viability, T/C [19]: 90.6%
- viability, T/C [20]: 87.2%
- viability, T/C [21]: 81.5%
- viability, T/C [22]: 78.3%
- viability, T/C [23]: 69.3%
- viability, T/C [24]: 49.4%
- viability, T/C [25]: 97.1%
- viability, T/C [26]: 87.2%
- viability, T/C [27]: 87.6%
- viability, T/C [28]: 77.9%
- viability, T/C [29]: 65.5%
- viability, T/C [30]: 46%
- viability, T/C [31]: 89.2%
- viability, T/C [32]: 84.6%
- viability, T/C [33]: 81.8%
- viability, T/C [34]: 76.1%
- viability, T/C [35]: 68.2%
- viability, T/C [36]: 52.3%

SMILES: Nc1ccn(C2OC(CO)C(O)C2(F)F)c(=O)n1 (stereo unspecified) + CN(C)c1ccc(Nc2c3ccc(NC(=O)CCN4CCCC4)cc3nc3cc(NC(=O)CCN4CCCC4)ccc23)cc1
- pIC50 (second compound 0.0316 µM): < 5.00
- pIC50 (second compound 0.1 µM): < 5.00
- pIC50 (second compound 0.316 µM): < 5.00
- pIC50 (second compound 1 µM): < 5.00
- pIC50 (second compound 3.16 µM): < 5.00
- pIC50 (second compound 10 µM): < 5.00
- viability, T/C [1]: 88.9%
- viability, T/C [2]: 81%
- viability, T/C [3]: 74.9%
- viability, T/C [4]: 74.2%
- viability, T/C [5]: 72.9%
- viability, T/C [6]: 62.7%
- viability, T/C [7]: 97.5%
- viability, T/C [8]: 82.7%
- viability, T/C [9]: 78.3%
- viability, T/C [10]: 74.1%
- viability, T/C [11]: 69.7%
- viability, T/C [12]: 55.3%
- viability, T/C [13]: 94.4%
- viability, T/C [14]: 83.2%
- viability, T/C [15]: 72.7%
- viability, T/C [16]: 69.3%
- viability, T/C [17]: 68.9%
- viability, T/C [18]: 59.8%
- viability, T/C [19]: 87.3%
- viability, T/C [20]: 78.8%
- viability, T/C [21]: 75%
- viability, T/C [22]: 70.4%
- viability, T/C [23]: 70.5%
- viability, T/C [24]: 57.5%
- viability, T/C [25]: 76.8%
- viability, T/C [26]: 78%
- viability, T/C [27]: 71.4%
- viability, T/C [28]: 65.2%
- viability, T/C [29]: 65.5%
- viability, T/C [30]: 54.4%
- viability, T/C [31]: 83.1%
- viability, T/C [32]: 66.2%
- viability, T/C [33]: 66.3%
- viability, T/C [34]: 63.6%
- viability, T/C [35]: 57.6%
- viability, T/C [36]: 48.2%

SMILES: O=c1[nH]cc(F)c(=O)[nH]1 + CN(C)c1ccc(Nc2c3ccc(NC(=O)CCN4CCCC4)cc3nc3cc(NC(=O)CCN4CCCC4)ccc23)cc1
- pIC50 (second compound 0.0316 µM): < 5.00
- pIC50 (second compound 0.1 µM): < 5.00
- pIC50 (second compound 0.316 µM): < 5.00
- pIC50 (second compound 1 µM): < 5.00
- pIC50 (second compound 3.16 µM): < 5.00
- pIC50 (second compound 10 µM): < 5.00
- viability, T/C [1]: 101%
- viability, T/C [2]: 90.5%
- viability, T/C [3]: 90.5%
- viability, T/C [4]: 92.6%
- viability, T/C [5]: 95.5%
- viability, T/C [6]: 97.5%
- viability, T/C [7]: 103%
- viability, T/C [8]: 90.1%
- viability, T/C [9]: 94.9%
- viability, T/C [10]: 83.8%
- viability, T/C [11]: 99.8%
- viability, T/C [12]: 91.5%
- viability, T/C [13]: 106%
- viability, T/C [14]: 100%
- viability, T/C [15]: 99.7%
- viability, T/C [16]: 92.8%
- viability, T/C [17]: 94.7%
- viability, T/C [18]: 94.5%
- viability, T/C [19]: 103%
- viability, T/C [20]: 96.9%
- viability, T/C [21]: 98%
- viability, T/C [22]: 96.9%
- viability, T/C [23]: 97.7%
- viability, T/C [24]: 92.5%
- viability, T/C [25]: 92.1%
- viability, T/C [26]: 100%
- viability, T/C [27]: 90.3%
- viability, T/C [28]: 88.3%
- viability, T/C [29]: 90.5%
- viability, T/C [30]: 91%
- viability, T/C [31]: 87.8%
- viability, T/C [32]: 92.6%
- viability, T/C [33]: 78%
- viability, T/C [34]: 82.4%
- viability, T/C [35]: 85.7%
- viability, T/C [36]: 83.4%
